Results reported in patent publication US5466682A, “Acylamino-alkyliden-hydroxy-bisphosphonic acids esters and salts thereof, wherein the acyl group is derived from an acid having antiinflammatory activity” (Istituto Gentili S.p.A., priority 1991, dated 1995).

Key:
Carrageenin Oedema = Carrageenin Oedema in Rat (% protection of paw oedema); assay type: in vivo, rat (S.D. male); conditions: subcutaneous; for % Protection 2nd hour: 2nd hour after carrageenin; for % Protection 4th hour: 4th hour after carrageenin; for % Protection 6th hour: 6th hour after carrageenin
Method: Carrageenin Oedema in Rat
Carrageenin+Ibuprofen (11 and 5.5 mg/kg)
Carrageenin+compound of example 8 (Br-Ax) (25.0 and 12.5 mg/kg)
Carrageenin+compound of example 7 (Br-Ab) (25.0 and 12.5 mg/kg)
Note: Ibuprofen doses are equimolar to the corresponding Br-Ab and Br-Ax doses.
S.D. male rats weighing 160-180 g
1) Control - (Carrageenin only)
Each group consisted of 5 males, trying to obtain the most homogeneous total weight for each group. The animals were inoculated subcutaneously with the test solutions homogenized in 5% gum Arabic which had been sterilized by filtration with "Acrodisc" Gelman with […] pores.
After 1 hour the animals were […] 0.1 ml of 1% carrageenin in sterile saline. Carrageenin was kept under stirring by means of a magnetic stirred, to make it as homogeneous as possible.
At the same time, the basal paw volumes were determined by means of a plethysmograph, so as to make possible to repeat the measurements in the most reliable way in the subsequent hours.
2 Hours after carrageenin inoculation, the measure of paw volumes was determined (2nd hour). Subsequently, said measurement was effected at the 4th and 6th hours from inoculation. After that, the % protection was calculated by means of the following formula: [formula]

[1] = tested on: bone calcium loss induced by retinoid; assay: Bone calcium loss induced by retinoid in thyroparathyroidectomized rat (plasma Ca); assay type: in vivo, rat (male); conditions: thyroparathyroidectomized rats, retinoid s.c. 3 days, 24 hours after last administration; for Plasmatic Ca increase after retinoid adm.: controls 1.11 ± 0.03; for % inhibition (of plasmatic Ca increase after retinoid): versus controls
Method: Male rats weighing about […] are thyroparathyroidectomyzed under Nembutal anaesthesia. The animals are treated with thyroxine on alternate days during all the test. 7 Days after surgery, blood is withdrawn by means of intracardiac puncture and Ca is determined on plasma. […] 24 Hours after the last administration, animals are killed and blood is recovered to determine Ca again.
BONE CALCIUM LOSS INDUCED BY RETINOID IN RAT

Compound | % Protection 2nd hour (Carrageenin Oedema; 5.5 mg/kg) [%] | % Protection 4th hour (Carrageenin Oedema; 5.5 mg/kg) [%] | % Protection 6th hour (Carrageenin Oedema; 5.5 mg/kg) [%] | % Protection 2nd hour (Carrageenin Oedema; 11.0 mg/kg) [%] | % Protection 4th hour (Carrageenin Oedema; 11.0 mg/kg) [%] | % Protection 6th hour (Carrageenin Oedema; 11.0 mg/kg) [%] | % Protection 2nd hour (Carrageenin Oedema; 12.5 mg/kg) [%] | % Protection 4th hour (Carrageenin Oedema; 12.5 mg/kg) [%] | % Protection 6th hour (Carrageenin Oedema; 12.5 mg/kg) [%] | % Protection 2nd hour (Carrageenin Oedema; 25.0 mg/kg) [%] | % Protection 4th hour (Carrageenin Oedema; 25.0 mg/kg) [%] | % Protection 6th hour (Carrageenin Oedema; 25.0 mg/kg) [%] | Plasmatic Ca increase after retinoid adm. [1] [mmol/lt] | % inhibition (of plasmatic Ca increase after retinoid) [1] [%]
CC(C)Cc1ccc(C(C)C(=O)O)cc1 (stereo not shown) [Ibuprofen, ibuprofen, reference compound] | 18 | 3 | 4 | 21 | 25 | 28 |  |  |  |  |  |  |  | 
CC(C)Cc1ccc(C(C)C(=O)NCCCCCC(O)(P(=O)(O)O)P(=O)(O)O)cc1 (stereo not shown) [Br--Ax, [6-[2-(4-Isobutylphenyl)-propionyl]-amino-1-hydroxyhexylidene]-diphosphonicacid] |  |  |  |  |  |  | 41 | 36 | 48 | 42 | 21 | 56 | 0.75 ± 0.17 | 32.4
CC(C)Cc1ccc(C(C)C(=O)NCCCC(O)(P(=O)(O)O)P(=O)(O)O)cc1 (stereo not shown) [Br--Ab, [4-[2-(4-Isobutylphenyl)-propionyl]-amino-1-hydroxybutylidene]-diphosphonicacid] |  |  |  |  |  |  | 31 | 28 | 30 | 68 | 57 | 38 | 0.62 ± 0.03 | 44.1
